{"source": "patent US8252807B2", "about": "“Methods of inhibiting the interaction between S100 and the receptor for advanced glycation end-products” (Board of Regents, The University of Texas System, priority 2007, dated 2012)", "key": {"Panc-1 cells": {"tested_on": "Panc-1 cells", "assay": "Matrigel invasion assay, Panc-1", "type": "cell-based", "conditions": "24 hours", "experimental": "FIGS. 2A-2D show the effect of cromolyn on pancreatic cancer cell invasion. Panc-1 and BxPC-3 cells were plated in Bio-coat matrigel and control chambers and cultured in serum-free culture media. After 24 hours non-invaded cells in the upper chamber were removed, and cells that invaded onto the lower surface of the membrane were counted from five adjacent fields. […] Data are expressed as the percent invasion through the matrigel matrix and membrane relative to migration through the control membrane. Means and 95% confidence intervals from three independent experiments performed in triplicate are shown. Two-tailed two-sample (unpaired) Student's t-tests were used to determine P values.\nPanc-1 and BxPC-3 cells were seeded in BIOCOAT matrigel invasion chambers and in control chambers without matrigel (Becton-Dickinson, Bedford, Mass.) according to the manufacturer's protocol. Panc-1 cells were seeded with S100P (100 nM) with or without cromolyn (100 μM), and BxPC-3 cells were seeded with or without cromolyn (1-100 μM). Briefly, 2.0×10^5 cells in 300 μL top solution (serum-free media) were added to each chamber and allowed to invade matrigel for 24 hours at 37° C. in a 5% CO2 atmosphere. The non-invading cells on the upper surface of membrane were removed from the chambers with a cotton swab, and the invading cells on the lower surface of the membrane were fixed and stained using a Diff-Quick stain kit (Becton Dickinson, Bedford, Mass.). After two washes with water, the chambers were allowed to air dry. The numbers of invading cells in five adjacent microscope fields per membrane were counted at 20× magnification to obtain the average number of cells per field. Data are expressed as the percent invasion through the matrigel matrix and membrane relative to the migration through the control membrane. The assays were performed three times."}, "MPan-96 cells": {"tested_on": "MPan-96 cells", "assay": "MPanc-96 cell invasiveness", "type": "cell-based, human"}, "S100P and RAGE": {"target": "T1, S100P and RAGE (Homo sapiens, UniProt P25815)", "T1 construct": "endogenous in cells; host or cells: BxPC-3 pancreatic adenocarcinoma cell lysate", "T1 sequence (P25815 1-95)": "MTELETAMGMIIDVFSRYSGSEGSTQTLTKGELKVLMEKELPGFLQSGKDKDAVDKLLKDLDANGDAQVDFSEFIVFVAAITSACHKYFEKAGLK", "assay": "Co-immunoprecipitation of S100P and RAGE from BxPC-3 cell lysates", "type": "binding", "conditions": "cromolyn 100 μM", "experimental": "Receptor for advanced glycation end products (RAGE) was identified in the immunoprecipitates by immunoblotting with a goat polyclonal anti-RAGE antibody and anti-S100P as an internal control. In the lower panel, one representative blot and densitometric analysis (means and 95% confidence intervals [CIs]) of three independent experiments is shown. *P<0.001, versus IP α-S100P without cromolyn.\nFor co-immunoprecipitation experiments, BxPC-3 cell lysates were incubated in the absence or presence of cromolyn (100 μM) at 4° C. overnight. S100P was immunoprecipitated using a mouse monoclonal anti-S100P antibody (Transduction Laboratories, San Diego, Calif.) for 6 hours at 4° C. and IgG-immobilized beads (Pierce Biotechnology, Inc. Rockford, Ill.). Antibody-associated proteins were electrophoresed on 10% polyacrylamide gels and electrophoretically transferred to nitrocellulose membranes. Membranes were blocked in PBS/5% milk overnight at 4° C. RAGE was detected using a goat polyclonal anti-RAGE antibody (1:200, Santa Cruz, Santa Cruz, Calif.), and S100P was detected using a goat polyclonal anti-S100P antibody (1:50, R & D systems, Minneapolis, Minn.) by immunoblotting as described in Arumugam, et al., S100P stimulates cell proliferation and survival via receptor for activated glycation end products (RAGE); J. Biol. Chem. 2004 Feb. 13; 279(7):5059-65. Briefly, membranes were incubated in primary antibody for 1 hour at room temperature followed by incubation with horseradish peroxidase-labeled secondary antibody for 30 minutes at room temperature. After a thorough wash in TBS-T buffer (1M Tris-HCL pH 8.3, 3M NaCl, 0.1% Tween-20), antibody-protein complexes were detected by using a chemiluminescent substrate (GE Healthcare Bio-Sciences Corp., Piscataway, N.J.). The intensity of the band was estimated (as density units) using densitometry (GS-250 Molecular Imaging System, Bio-Rad Laboratories, Richmond, Calif.). The experiment was repeated three times."}, "[1]": {"tested_on": "NFκB activity in MPanc-96 cells", "assay": "S100P stimulated NFκB luciferase reporter, MPanc-96", "type": "cell-based, human", "conditions": "S100P 100 nM, compound 1 μM, 5 hours", "experimental": "MPanc-96 pancreatic cancer cell lines stably expressing an NFκB luciferase reporter were examined for the effects of S100P, cromolyn and C5. Cells were plated at 5.0×10^3 cells/well, treated for 5 hours with 100 nM of S100P, with or without cromolyn and C5 (1 μM), and activity of a luciferase gene driven by the NFkB promoter was analyzed. P=0.05 C5 versus cromolyn. Two-tailed two-sample (unpaired) Student's t-tests were used to determine P values."}, "SW480 colon cells": {"tested_on": "SW480 colon cells", "assay": "SW480 colon cell proliferation", "type": "cell-based", "conditions": "cromolyn 100 μM, up to three days", "experimental": "SW480 colon cells were cultured for up to three days in the presence of cromolyn (100 μM), and cell proliferation was analyzed. *, P<0.05."}, "[2]": {"conditions": "background statement; cited from earlier work"}, "[3]": {"tested_on": "NFκB promoter activity in BxPC-3 cells", "assay": "Luciferase assay for NFκB activity, BxPC-3", "type": "cell-based", "conditions": "for basal NFκB activity in BxPC-3 cells, mean: 5 hours, 0 μM mean=1.4×10^6"}, "BxPC-3 cells": {"tested_on": "BxPC-3 cells", "assay": "BxPC-3 cell viability, 72 hours", "type": "cell-based", "experimental": "BxPC-3 cells were plated at 1.0×10^3 cells/well and treated with 0 μM, 1 μM, 10 μM, and 100 μM of cromolyn or C5 alone or in combination with gemcitabine 1 μM and cell viability was analyzed after 72 hours. Two-tailed two-sample (unpaired) Student's t-tests were used to determine P values. […] BxPC-3 cells were plated at 1.0×10^3 cells/well and treated with either 100 μM of cromolyn or 1 μM C5 alone or in combination with gemcitabine (1 μM) and cell viability was analyzed after 72 hours."}}, "data": [{"smiles": "O=C(O)c1cc(=O)c2c(OCC(O)COc3cccc4oc(C(=O)O)cc(=O)c34)cccc2o1", "note": "[cromolyn, disodium 1,3-bis[(2′-carboxylatochromon-5′-yl)oxy]-2-hydroxypropane]", "values": [{"measurement": "Panc-1 cells invaded, difference S100P versus S100P+cromolyn", "setting": "Panc-1 cells", "result": 48.6, "unit": "%"}, {"measurement": "Panc-1 cells invaded, mean", "setting": "Panc-1 cells; S100P 100 nM + cromolyn 100 μM", "result": 9.4, "unit": "%"}, {"measurement": "Panc-1 basal cell invasion", "setting": "Panc-1 cells; no S100P", "result": "did not reduce basal cell invasion"}, {"measurement": "MPanc-96 basal cell invasiveness", "setting": "MPan-96 cells", "result": "inhibited basal cell invasiveness"}, {"measurement": "co-immunoprecipitation of S100P and RAGE, difference control versus cromolyn", "setting": "S100P and RAGE", "result": 25640, "unit": "density units"}, {"measurement": "total amount of S100P immunoprecipitated", "setting": "S100P and RAGE", "result": "no effect"}, {"measurement": "co-immunoprecipitation of S100P and RAGE, mean", "setting": "S100P and RAGE; control mean=34040", "result": 8410, "unit": "density units"}, {"measurement": "NFκB activity in pancreatic cancer cells in vitro", "setting": "[1]", "result": "inhibit NFκB activity"}, {"measurement": "growth of SW480 cells", "setting": "SW480 colon cells", "result": "reduced growth"}, {"measurement": "permeability to cells", "setting": "[2]", "result": "impermeant to cells"}, {"measurement": "basal NFκB activity in BxPC-3 cells, difference versus 0 μM", "setting": "[3]; cromolyn 10 μM", "result": "4.7×10^5 photons/sec"}, {"measurement": "basal NFκB activity in BxPC-3 cells, mean", "setting": "[3]; cromolyn 10 μM", "result": "9.4×10^5 photons/sec"}, {"measurement": "basal NFκB activity in BxPC-3 cells, difference versus 0 μM", "setting": "[3]; cromolyn 100 μM", "result": "5.9×10^5 photons/sec"}, {"measurement": "basal NFκB activity in BxPC-3 cells, mean", "setting": "[3]; cromolyn 100 μM", "result": "8.2×10^5 photons/sec"}, {"measurement": "BxPC-3 cell viability", "setting": "BxPC-3 cells; 1-100 μM, alone or with gemcitabine 1 μM", "result": "inhibit BxPC-3 cell viability"}, {"measurement": "concentration giving the same level of cell reduction in combination with gemcitabine", "setting": "BxPC-3 cells; with gemcitabine 1 μM", "result": 100, "unit": "µM"}]}]}
